Molecules are shown by their SMILES. pIC50: −log10 of the molar value.

The values below come from patent publication US20210261512A1, “NOVEL COMPOUNDS” (INFLAZOME LIMITED, priority 2018, published 2021).

Data set [1] concerns the target T1, NLRP3 (Homo sapiens, UniProt Q96P20). Briefly: Human whole blood IL1β release assay. Type of data set: cell-based. Conditions: LPS 1 μg/ml, nigericin 10 μM, IL-1β AlphaLisa, 10 μM top dose (Example 2: top dose of 30 μM), read-out: HWB IC50. The procedure: For systemic delivery, the ability to inhibit NLRP3 when the compounds are present within the bloodstream is of great importance. For this reason, the NLRP3 inhibitory activity of a number of compounds in human whole blood was investigated in accordance with the following protocol.
Human whole blood in sodium-heparin or lithium-heparin tubes was obtained from healthy donors from a volunteer donor panel. • 1. Plate out 80 μl of whole blood containing 1 μg/ml of LPS in 96-well, clear bottom cell culture plate (Corning #3585) • 2. Add 10 μl compound (8 points half-log dilution with 10 μM top dose, unless stated otherwise) or vehicle (DMSO 0.1% FAC) to the appropriate wells • 3. Incubate for 3 hrs at 37° C., 5% CO2 • 4. Add 10 μl nigericin (Sigma #N7143) (10 μM FAC) to all wells • 5. Incubate for 1 hr at 37° C., 5% CO2 • 6. At the end of the incubation period, spin plates at 300×g for 5 mins to pellet cells and remove 20 μl of supernatant and add to 96-well v-bottom plates for IL-1β analysis (note: these plates containing the supernatants can be stored at −80° C. to be analysed at a later date) • 7. IL-1β was measured according to the manufacturer protocol (Perkin Elmer-AlphaLisa IL-1 Kit AL220F-5000) • 8. IC50 data is fitted to a non-linear regression equation (log inhibitor vs response-variable slope 4-parameters)
On the technique in general: Alpha assays give light when donor and acceptor beads are brought close together.

The target of data set [2] is T1, NLRP3. Put plainly: THP-1 cells pyroptosis assay. Type of data set: cell-based. Conditions: LPS 1.0 μg/ml, nigericin 5 μM, resazurin readout, 10 μM top dose (Example 2: top dose of 30 μM). On the set-up: Seed THP-1 cells (25,000 cells/well) containing 1.0 μg/ml LPS; host or cells: THP-1. The method, boiled down: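 Pyroptosis induced by 5 μM nigericin (1 h) in LPS-primed (1 μg/ml) THP-1 cells, 25,000/well in serum-free RPMI, after 3 h compound pre-treatment (8 points, 10 μM top unless stated). Surviving cells measured with 100 μM resazurin, Ex 560/Em 590; IC50 via variable-slope 4-parameter regression.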
In general terms: The colour change of resazurin is a common sign of viable cells or microbes.

Data set [3] can be described thus: PK, intravenous administration. Type of data set: in vivo. The conditions noted are these: rat, plasma, male Sprague Dawley rats, dose about 1 mg/kg; for Vd: read-out: Vdss. The protocol:
Pharmacokinetic parameters were determined in male Sprague Dawley rats (Vital River Laboratory Animal Technology Co Ltd, Beijing, China, 6-9 weeks old). Animals were maintained under a 12 h light/dark cycle. Animals had free access to food and water, except that orally dosed animals were food deprived overnight prior to the study.
For intravenous administration, compounds were formulated as a solution (in DMSO:water [10:90] or in DMSO:PBS [10:90]) in 2 mL/kg dosing volume and administered via tail vein. For oral administration, compounds were formulated as a solution (in 0.5% methylcellulose in water) in […] dosing volume and administered orally.
Serial blood samples (about 200 μL) were taken from each animal at each of 8 time-points post dose ([…], 0.25, 0.5, 1, 2, 4, 8 and 24 h). Samples were held on ice for no longer than 30 minutes before centrifugation (5,696 rpm (3,000 g) for 15 minutes) for plasma generation. Plasma was frozen on dry ice prior to bioanalysis. PK parameters were generated from LC-MS/MS data using Phoenix WinNonlin 6.3 software.

T1 sequence (Q96P20 whole entry): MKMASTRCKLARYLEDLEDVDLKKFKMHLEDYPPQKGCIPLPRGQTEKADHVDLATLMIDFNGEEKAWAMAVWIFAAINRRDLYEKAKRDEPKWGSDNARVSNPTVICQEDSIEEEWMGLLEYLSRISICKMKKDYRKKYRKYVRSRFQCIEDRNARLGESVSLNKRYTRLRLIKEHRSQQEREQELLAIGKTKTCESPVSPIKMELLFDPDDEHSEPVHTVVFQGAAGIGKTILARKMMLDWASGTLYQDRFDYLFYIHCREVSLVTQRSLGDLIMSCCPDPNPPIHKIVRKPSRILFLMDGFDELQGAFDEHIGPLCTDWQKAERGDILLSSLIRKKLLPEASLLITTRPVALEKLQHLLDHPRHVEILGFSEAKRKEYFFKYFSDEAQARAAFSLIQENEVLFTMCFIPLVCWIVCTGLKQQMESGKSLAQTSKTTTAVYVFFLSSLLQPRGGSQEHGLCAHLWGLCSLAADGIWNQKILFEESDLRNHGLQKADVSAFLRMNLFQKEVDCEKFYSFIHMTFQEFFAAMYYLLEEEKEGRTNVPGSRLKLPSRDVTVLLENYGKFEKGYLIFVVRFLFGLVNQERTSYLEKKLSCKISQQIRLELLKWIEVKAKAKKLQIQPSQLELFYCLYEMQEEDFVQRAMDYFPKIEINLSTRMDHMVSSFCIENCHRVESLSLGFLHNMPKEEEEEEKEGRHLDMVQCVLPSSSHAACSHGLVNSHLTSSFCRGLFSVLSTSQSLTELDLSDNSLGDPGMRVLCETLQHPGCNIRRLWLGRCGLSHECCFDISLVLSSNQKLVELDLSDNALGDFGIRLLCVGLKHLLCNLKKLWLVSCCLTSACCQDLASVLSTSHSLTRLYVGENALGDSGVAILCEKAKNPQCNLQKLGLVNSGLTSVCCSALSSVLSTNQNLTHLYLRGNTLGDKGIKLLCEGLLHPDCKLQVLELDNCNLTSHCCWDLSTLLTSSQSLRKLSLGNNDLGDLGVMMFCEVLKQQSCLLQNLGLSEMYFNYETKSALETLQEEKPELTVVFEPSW

The pIC50 is −log10 of the IC50, conventionally taken in molar units. Regarding `O=S(=O)(Cc1ccccc1)c1nnc(Nc2c3c(cc4c2CCC4)CCC3)[nH]1` [Example 2, 5-(benzylsulfonyl)-N-(1,2,3,5,6,7-hexahydro-s-indacen-4-yl)-4H-1,2,4-triazol-3-amine], the values for the pIC50 at NLRP3 [1] and against NLRP3 [2] were at least 4.52 and at least 5.00, respectively.
For `CC(c1cc(S(=O)(=O)c2nnc(Nc3c4c(cc5c3CCC5)CCC4)[nH]2)nn1C)N(C)C` (centres unmarked) [Example 5, 5-((5-(1-(dimethylamino)ethyl)-1-methyl-1H-pyrazol-3-yl)sulfonyl)-N-(1,2,3,5,6,7-hexahydro-s-indacen-4-yl)-4H-1,2,4-triazol-3-amine], in that order: at least 5.00 and at least 6.30.
Taken in the same sequence, the figures for `COC1(c2cc(S(=O)(=O)c3nnc(Nc4c5c(cc6c4CCC6)CCC5)[nH]3)nn2C)COC1` [Example 12, N-(1,2,3,5,6,7-hexahydro-s-indacen-4-yl)-5-((5-(3-methoxyoxetan-3-yl)-1-methyl-1H-pyrazol-3-yl)sulfonyl)-4H-1,2,4-triazol-3-amine] were at least 5.00 and at least 6.00.
Taken in the same sequence, the figures for `COC(C)(C)Cn1ccc(S(=O)(=O)c2nnc(Nc3c4c(cc5c3CCC5)CCC4)[nH]2)n1` [Example 18, N-(1,2,3,5,6,7-hexahydro-s-indacen-4-yl)-5-((1-(2-methoxy-2-methylpropyl)-1H-pyrazol-3-yl)sulfonyl)-4H-1,2,4-triazol-3-amine] were at least 5.00 and at least 6.30.
Regarding `COc1cc(-c2ccc3c(c2Nc2nnc(S(=O)(=O)c4ccn(C(C)C)n4)[nH]2)CCC3)ccn1` [Example 34, 5-((1-isopropyl-1H-pyrazol-3-yl)sulfonyl)-N-(5-(2-methoxypyridin-4-yl)-2,3-dihydro-1H-inden-4-yl)-4H-1,2,4-triazol-3-amine], the pIC50 on NLRP3 [1] was at least 5.30; on NLRP3 [2], at least 6.00.
Taken in the same sequence, the figures for `CC(C)n1ccc(S(=O)(=O)c2nnc(Nc3c(-c4ccncc4)cc(F)c4c3CCC4)[nH]2)n1` [Example 36, N-(7-fluoro-5-(pyridin-4-yl)-2,3-dihydro-1H-inden-4-yl)-5-((1-isopropyl-1H-pyrazol-3-yl)sulfonyl)-4H-1,2,4-triazol-3-amine] were at least 5.00 and at least 5.30.
Taken in the same sequence, the figures for `CN(C)Cc1cccc(S(=O)(=O)c2nnc(Nc3c4c(cc5c3CCC5)CCC4)[nH]2)c1` [Example 44, 5-((3-((dimethylamino)methyl)phenyl)sulfonyl)-N-(1,2,3,5,6,7-hexahydro-s-indacen-4-yl)-4H-1,2,4-triazol-3-amine] were at least 5.30 and at least 6.30.
Taken in the same sequence, the figures for `CCN(CC)CCS(=O)(=O)c1nnc(Nc2c3c(cc4c2CCC4)CCC3)[nH]1` [Example 46, 5-((2-(diethylamino)ethyl)sulfonyl)-N-(1,2,3,5,6,7-hexahydro-s-indacen-4-yl)-4H-1,2,4-triazol-3-amine] were at least 5.30 and at least 6.00.
In the case of `CN1CCCCC1CCS(=O)(=O)c1nnc(Nc2c3c(cc4c2CCC4)CCC3)[nH]1` (centres unmarked) [Example 59, N-(1,2,3,5,6,7-Hexahydro-s-indacen-4-yl)-3-((2-(1-methylpiperidin-2-yl)ethyl)sulfonyl)-1H-1,2,4-triazol-5-amine], the figures for the negative-log IC50 (pIC50) at NLRP3 [1] and against NLRP3 [2] were at least 6.00 and at least 6.30, respectively.
Taken in the same sequence, the figures for `CCN(CC)CCCS(=O)(=O)c1nnc(Nc2c(-c3ccncc3)cc(F)c3c2CCC3)[nH]1` [Example 77, 5-((3-(diethylamino)propyl)sulfonyl)-N-(7-fluoro-5-(pyridin-4-yl)-2,3-dihydro-1H-inden-4-yl)-4H-1,2,4-triazol-3-amine] were at least 5.30 and at least 6.00.
For `CCN(CC)CCN(C)S(=O)(=O)c1nnc(Nc2c3c(cc4c2CCC4)CCC3)[nH]1` [Example 80, N-(2-(diethylamino)ethyl)-3-((1,2,3,5,6,7-hexahydro-s-indacen-4-yl)amino)-N-methyl-1H-1,2,4-triazole-5-sulfonamide], in that order: at least 5.30 and at least 6.00.
Taken in the same sequence, the figures for `CN1CCC(N(C)S(=O)(=O)c2nnc(Nc3c4c(cc5c3CCC5)CCC4)[nH]2)C1` (centres unmarked) [Example 87, 5-((1,2,3,5,6,7-hexahydro-s-indacen-4-yl)amino)-N-methyl-N-(1-methylpyrrolidin-3-yl)-4H-1,2,4-triazole-3-sulfonamide] were at least 6.00 and at least 5.30.
As a reminder, the AUC is concentration integrated over time. A high value points to more exposure. One may read the clearance as the rate of elimination divided by the concentration. A high value points to efficient removal. For orientation: half-life means the time needed for the level to fall by half in the phase considered. A low value points to rapid decline. Consider `CN1CCC2(C1)CN(S(=O)(=O)c1nnc(Nc3c(-c4ccnc(OC(F)F)c4)ccc4c3CCC4)[nH]1)C2` [Example 213, N-(5-(2-(difluoromethoxy)pyridin-4-yl)-2,3-dihydro-1H-inden-4-yl)-5-((6-methyl-2,6-diazaspiro[3.4]octan-2-yl)sulfonyl)-4H-1,2,4-triazol-3-amine], for which, in data set [3], the AUC came to 186 ng·h/mL, the clearance turned out to be 90.6 mL/min/kg, the half-life is 43.8 min and the Vd was 4.21 L/kg. Moreover, on NLRP3 [2], the pIC50 is at least 6.30.
As to `CN1CCC(Oc2cc(-c3ccc4c(c3Nc3nnc(S(C)(=O)=O)[nH]3)CCC4)ccn2)CC1` [Example 235, N-(5-(2-((1-methylpiperidin-4-yl)oxy)pyridin-4-yl)-2,3-dihydro-1H-inden-4-yl)-5-(methylsulfonyl)-4H-1,2,4-triazol-3-amine], in data set [3], the exposure (AUC) is 430 ng·h/mL, the clearance turned out to be 38.7 mL/min/kg, the half-life was 130 min and the Vd was 0.935 L/kg. This compound gave a pIC50 on NLRP3 [2] of at least 5.00.
For `CS(=O)(=O)c1nnc(Nc2c(-c3ccnc(OC4CCCOC4)c3)ccc3c2CCC3)[nH]1` (centres unmarked) [Example 236, 5-(methylsulfonyl)-N-(5-(2-((tetrahydro-2H-pyran-3-yl)oxy)pyridin-4-yl)-2,3-dihydro-1H-inden-4-yl)-4H-1,2,4-triazol-3-amine], in that order: 3160 ng·h/mL, 5.28 mL/min/kg, 53.5 min, 0.149 L/kg and at least 5.00.
For the compound `CN1CCOCC12CCN(S(=O)(=O)c1nnc(Nc3c4c(cc5c3CCC5)CCC4)[nH]1)CC2` [Example 296, N-(1,2,3,5,6,7-hexahydro-s-indacen-4-yl)-5-((1-methyl-4-oxa-1,9-diazaspiro[5.5]undecan-9-yl)sulfonyl)-4H-1,2,4-triazol-3-amine], in data set [3], the exposure (AUC) came to 315 ng·h/mL, the clearance amounted to 52.9 mL/min/kg, the half-life was 35.4 min and the Vd stood at 1.7 L/kg. The same compound gave a negative-log IC50 (pIC50) on NLRP3 [2] of at least 6.30.
For `Cc1cc(-c2cc(F)cc(C(C)C)c2Nc2nnc(S(=O)(=O)N3CCC(N(C)C)CC3)[nH]2)ccn1` [Example 302, 1-((5-((4-fluoro-2-isopropyl-6-(2-methylpyridin-4-yl)phenyl)amino)-1H-1,2,4-triazol-3-yl)sulfonyl)-N,N-dimethylpiperidin-4-amine], in that order: 153 ng·h/mL, 109 mL/min/kg, 80.4 min, 4.03 L/kg and at least 5.30.
For `COc1cc(-c2ccc3c(c2Nc2nnc(S(=O)(=O)c4ccccc4C#N)[nH]2)CCC3)ccn1` [Example 310, 2-((5-((5-(2-methoxypyridin-4-yl)-2,3-dihydro-1H-inden-4-yl)amino)-4H-1,2,4-triazol-3-yl)sulfonyl)benzonitrile], in that order: 221 ng·h/mL, 75.4 mL/min/kg, 27.5 min, 1.45 L/kg and at least 5.30.
For `CC(C)n1ccc(S(=O)(=O)c2nnc(Nc3c4c(cc5c3CCC5)CCC4)[nH]2)n1` [Example 337, N-(1,2,3,5,6,7-hexahydro-s-indacen-4-yl)-5-((1-isopropyl-1H-pyrazol-3-yl)sulfonyl)-4H-1,2,4-triazol-3-amine], in that order: 981 ng·h/mL, 17 mL/min/kg, 35.7 min, 0.54 L/kg and at least 6.30.
